Data taken from article PMC7761830, “Structure-Based Virtual Screening of Ultra-Large Library Yields Potent Antagonists for a Lipid GPCR” (Biomolecules, 2020).
Positions count from the first letter of the chain named. Values joined by “and” are separate entries in the source; they are usually repeats but may differ in a detail not shown here. Identical values can stand only once.

Key:
CysLT2R = details: cited from earlier work; for pAct: CysLT2R, ChEMBL value, ref 29 (ChEMBL)
CysLT2R mutant L129Q = biological target: T1, CysLT2R mutant L129Q (Homo sapiens, UniProt Q9NS75, L129Q); assay: IP1 production assay, constitutively active mutant, direct compound stimulation (inverse agonism); format: cell-based; details: HEK293 transiently expressing CysLT2R L129Q; for % max inhibition ± SEM of constitutive IP1 accumulation: WT non-stimulated = 0%, L129Q non-stimulated = 100%
T1 construct: expressed in transfected cells; host or cells: HEK293 (ATCC CRL-1573), transient transfection with Lipofectamine 3000
T1 sequence (Q9NS75 1-346 L129Q): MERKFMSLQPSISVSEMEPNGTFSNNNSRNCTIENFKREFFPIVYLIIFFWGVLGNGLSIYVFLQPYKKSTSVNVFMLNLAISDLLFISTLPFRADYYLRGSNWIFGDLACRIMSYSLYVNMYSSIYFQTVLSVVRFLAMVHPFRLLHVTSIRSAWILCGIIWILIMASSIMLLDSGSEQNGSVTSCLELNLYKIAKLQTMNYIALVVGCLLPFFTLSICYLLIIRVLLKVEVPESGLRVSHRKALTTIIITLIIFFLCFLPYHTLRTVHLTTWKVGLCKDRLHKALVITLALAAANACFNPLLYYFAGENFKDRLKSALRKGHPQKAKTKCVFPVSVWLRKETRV
Description: (§1) All 139 selected compounds were screened in a functional assay measuring IP1 production as an indicator of Gαq activation. For this assay, we used the Cisbio IP-One kit as previously described. Human Embryonic Kidney (HEK) 293 cells (ATCC CRL-1573) between passages 5 and 25 were seeded onto poly-L-Lysine-coated 384-well plates at 20,000 cells/well and transfected with 30 ng of cDNA coding for the wild-type CysLT1R or CysLT2R receptors or for the CysLT2R mutant L129Q, using the Lipofectamine 3000 (Thermo Fisher Scientific) transfection agent. At 48 h post-transfection, the media was removed and the cells were washed with fresh Hank’s Balanced Salt Solution (HBSS). […] First, all 139 selected compounds were screened at a 30 µM concentration in both the agonist and antagonist mode in cells transiently expressing the wildtype CysLT1R or CysLT2R receptors. […] For CysLT1R, the compounds retained were BRI-12328, BRI-12334, BRI-12359, BRI-12410, BRI-12411, BRI-12417, BRI-12424, BRI-12435, BRI-12450, and BRI-12458; for CysLT2R, these were BRI-12328, BRI-12334, BRI-12359, BRI-12401, BRI-12402, BRI-12405, BRI-12410, BRI-413, BRI-12417, BRI-12424, BRI-426, BRI-427, BRI-450, BRI-453, BRI-454, BRI-458, and BRI-466. These hits were again tested in the antagonist mode with compound concentrations ranging from 1.56 µM to 100 µM, at 2-fold concentration intervals. The three best hits (BRI-12359, BRI-417, and BRI-424) were also tested using the LTC4 ligand (EC80 concentration) and in cells transiently expressing the constitutively active CysLT2R mutant L129Q. […] After compound stimulation, the cells were incubated for 1 h at 37 °C and stimulated with IP1-D2 and Ab-Crypt reagents in Lysis Buffer. The cells were then incubated at room temperature for an additional hour. The plate was read on a Tecan Genios Pro plate reader using a HTRF (homogeneous time-resolved fluorescence) filter set (λex = 320 nm, λem = 620 and 655 nm). Normalized data were plotted using either the three-parameter or four-parameter EC50/IC50 fits of GraphPad Prism 8 (San Diego). […] Data represent the means ± SEM of at least three independent experiments performed in quadruplicate. For the additional antagonist experiments performed with BRI-12359, we performed Schild analysis in order to determine pA2 values.
This effect would be particularly interesting in the case of the L129Q CysLT2R mutant identified in uveal melanoma patients. We tested these three compounds in the functional IP1 assay using cells transiently expressing the L129Q CysLT2R mutant, directly stimulated with a range of compound concentrations (1.6 to 100 μM).

wild-type CysLT1R [1] = biological target: T2, wild-type CysLT1R (Homo sapiens, UniProt Q9Y271); assay: IP1 production assay, antagonist mode, co-stimulation with EC80 LTD4; format: cell-based; details: for inhibition at 30 µM: HEK293, compound 30 µM, LTD4 at EC80, HEK293, wild-type CysLT1R, read-out: inhibition of LTD4-induced IP1 production, single-concentration screen; for Emax: HEK293, read-out: CysLT1R (LTD4) % Max Inhibition ± SEM; for extent of inhibition of LTD4-mediated response at CysLT1R (in words): antagonist mode, 1.5 to 100 µM
T2 construct: expressed in transfected cells; host or cells: HEK293 (ATCC CRL-1573), transient transfection with Lipofectamine 3000
T2 sequence (Q9Y271 1-337): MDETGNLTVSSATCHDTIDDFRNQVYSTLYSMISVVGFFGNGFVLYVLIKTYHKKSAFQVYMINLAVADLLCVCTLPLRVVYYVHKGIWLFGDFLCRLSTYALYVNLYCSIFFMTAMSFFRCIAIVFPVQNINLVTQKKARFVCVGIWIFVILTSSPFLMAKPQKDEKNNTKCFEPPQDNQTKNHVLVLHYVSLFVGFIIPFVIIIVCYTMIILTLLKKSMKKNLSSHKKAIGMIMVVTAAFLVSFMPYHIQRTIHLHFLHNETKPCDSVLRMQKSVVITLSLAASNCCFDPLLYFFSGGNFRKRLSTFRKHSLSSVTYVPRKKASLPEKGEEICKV

wild-type CysLT2R [2] = biological target: T3, wild-type CysLT2R (Homo sapiens, UniProt Q9NS75); assay: as above; format: cell-based; details: for inhibition at 30 µM: HEK293, compound 30 µM, LTD4 at EC80, HEK293, wild-type CysLT2R, read-out: inhibition of LTD4-induced IP1 production, single-concentration screen; for Emax: HEK293, read-out: CysLT2R (LTD4) % Max Inhibition ± SEM
T3 construct: expressed in transfected cells; host or cells: HEK293 (ATCC CRL-1573), transient transfection with Lipofectamine 3000
T3 sequence (Q9NS75 1-346): T1 sequence (Q9NS75 1-346 L129Q) with Q129L

wild-type CysLT1R [3] = biological target: T2, wild-type CysLT1R; assay: IP1 production assay, antagonist mode, LTC4 (EC80) as agonist; format: cell-based; details: HEK293, wild-type CysLT1R, LTC4 at EC80; for Ki: functional Ki by Cheng-Prusoff, read-out: CysLT1R (LTC4) Ki ± SEM
Description: as §1

wild-type CysLT2R [4] = biological target: T3, wild-type CysLT2R; assay: as above; format: cell-based; details: HEK293, wild-type CysLT2R; LTC4 at EC80
Description: as §1

CysLT1R = details: cited from earlier work; for pAct: CysLT1R, ChEMBL value, ref 29 (ChEMBL)

In the case of `O=C(O)CCCN1CC(C(=O)O)Oc2c(C=Cc3ccc(OCCCCOc4ccccc4)cc3)cccc21` (stereo not drawn) [CHEMBL3403187, C(CC(O)=O)CN1CC(C(O)=O)Oc2c(C=Cc3ccc(cc3)OCCCCOc3ccccc3)cccc12], the pAct (CysLT2R) is given as 9.5.
With `Cn1c(-c2ccc(NC(=O)c3cccc(OCC(=O)O)c3)cc2)nc2ccccc21` [BRI-12424] the “% max inhibition ± SEM of constitutive IP1 accumulation” value (CysLT2R mutant L129Q) was 21 ± 10%, the Ki (wild-type CysLT1R [1]) was 220 ± 30 nM and the remaining activity at 30 µM (wild-type CysLT1R [1]) was 50.8%. For the same molecule, the inhibition at 30 µM (wild-type CysLT1R [1]) was at least 50%, the Emax (wild-type CysLT1R [1]) was 71 ± 19% and the “extent of inhibition of LTD4-mediated response at CysLT1R (in words)” value (wild-type CysLT1R [1]) was “partial antagonism”. It also gave a remaining activity at 30 µM (wild-type CysLT2R [2]) of 79.7%, an inhibition at 30 µM (wild-type CysLT2R [2]) of under 50% and an Emax (wild-type CysLT2R [2]) of 7 ± 5%. For the same molecule, the “CysLT1R (LTC4) % Max Inhibition ± SEM” value (wild-type CysLT1R [3]) was 52 ± 9%, the Ki (wild-type CysLT1R [3]) was 180 ± 30 nM and the “CysLT2R (LTC4) % Max Inhibition ± SEM” value (wild-type CysLT2R [4]) was 9 ± 5%.
For `O=C(O)CCCc1cn(CC(=O)O)c2c(C=Cc3ccc(OCCCCOc4ccccc4)cc3)cccc12` [CHEMBL3597522, C(CC(O)=O)Cc1cn(CC(O)=O)c2c(C=Cc3ccc(cc3)OCCCCOc3ccccc3)cccc12], the pAct (CysLT2R) is given as 8.2.
For `NC(=O)c1ccccc1Oc1ccc(NC(=O)c2ccc3nc(C(F)(F)F)cn3c2)cc1` [BRI-12417], the “% max inhibition ± SEM of constitutive IP1 accumulation” value (CysLT2R mutant L129Q) was 59 ± 12%, the IC50 (CysLT2R mutant L129Q; compound 1.6 to 100 μM, no agonist, read-out: IC50 ± SEM, inhibition of constitutive IP1 accumulation) was 30000 to 40000 nM and 38000 nM and the Ki (wild-type CysLT1R [1]) was 3100 ± 630 nM. It also gave a remaining activity at 30 µM (wild-type CysLT1R [1]) of 54.7%, an inhibition at 30 µM (wild-type CysLT1R [1]) of at least 50% and an Emax (wild-type CysLT1R [1]) of 100 ± 17%. For the same molecule, the “extent of inhibition of LTD4-mediated response at CysLT1R (in words)” value (wild-type CysLT1R [1]) was “completely inhibit”, the remaining activity at 30 µM (wild-type CysLT2R [2]) was 74.4% and the inhibition at 30 µM (wild-type CysLT2R [2]) was under 50%. For the same molecule, the Emax (wild-type CysLT2R [2]) was 54 ± 6%, the “CysLT1R (LTC4) % Max Inhibition ± SEM” value (wild-type CysLT1R [3]) was 83 ± 14% and the Ki (wild-type CysLT1R [3]) was 700 nM and 680 nM. For the same molecule, the “CysLT2R (LTC4) % Max Inhibition ± SEM” value (wild-type CysLT2R [4]) was 32 ± 5%.
In the case of `O=C(O)CCCN1CC(c2nnn[nH]2)Oc2c(C=Cc3ccc(OCCCCc4ccccc4)cc3)cccc21` (stereo not drawn) [CHEMBL3403186, C(CCOc1ccc(C=Cc2cccc3c2OC(CN3CCCC(O)=O)c2nnn[nH]2)cc1)Cc1ccccc1], the pAct (CysLT1R) is given as 9.2 and the pAct (CysLT2R) is given as 8.5.
For `O=C(O)c1ccc(OCCCc2ccc(OCCCCOc3ccccc3)cc2)c(C(=O)NC2CCCC(C(=O)O)C2)c1` (stereo not drawn) [CHEMBL3342945], the IC50 (CysLT2R; activity of the ligand from ChEMBL, ref ChEMBL, read-out: IC50 (CysLT2)) is listed as 53 nM.
For `O=C(O)CCCN1CC(c2nn[nH]n2)Oc2c(NC(=O)c3ccc(OCCCCc4ccccc4)cc3)cccc21` (stereo not drawn) [CHEMBL3401689, C(CCOc1ccc(cc1)C(Nc1cccc2c1OC(CN2CCCC(O)=O)c1nn[nH]n1)=O)Cc1ccccc1], the pAct (CysLT2R) is given as 9.3.
For `O=C(O)CCCN1CC(C(=O)NS(=O)(=O)c2ccccc2)Oc2c(NC(=O)c3ccc(OCCCCc4ccccc4)cc3)cccc21` (stereo not drawn) [CHEMBL3401691, C(CCOc1ccc(cc1)C(Nc1cccc2c1OC(CN2CCCC(O)=O)C(NS(c1ccccc1)(=O)=O)=O)=O)Cc1ccccc1], the pAct (CysLT2R) is given as 8.2.
For `COc1cc(C(=O)NS(=O)(=O)c2ccccc2C)ccc1Cc1cn(C)c2ccc(NC(=O)NC3CCCC3)cc12` [CHEMBL431348], the Kd (CysLT1R; activity of the ligand from ChEMBL, ref ChEMBL, read-out: Kd (CysLT1)) is listed as 0.79 nM.
In the case of `O=C(O)CCCN1C[C@@H](C(=O)O)Oc2c(NC(=O)c3ccc(OCCCCc4ccccc4)cc3)cccc21` [CHEMBL3342964, C(CCOc1ccc(cc1)C(Nc1cccc2c1O[C@@H](CN2CCCC(O)=O)C(O)=O)=O)Cc1ccccc1], the pAct (CysLT2R) is listed as 9.1.
In the case of `O=C(O)CCCN1CC(C(=O)O)Oc2c(NC(=O)c3ccc(OCCCCCc4ccccc4)cc3)cccc21` (stereo not drawn) [CHEMBL3342959, C(CCc1ccccc1)CCOc1ccc(cc1)C(Nc1cccc2c1OC(CN2CCCC(O)=O)C(O)=O)=O], the pAct (CysLT2R) is given as 9.2.
In the case of `CC(C)(O)c1ccc(CC[C@@H](SCC2(CC(=O)O)CC2)c2cccc(C=Cc3ccc4sc(Cl)c(Cl)c4n3)c2)cc1` [CHEMBL313187, CC(C)(c1ccc(CC[C@H](c2cccc(C=Cc3ccc4c(c(c(s4)[Cl])[Cl])n3)c2)SCC2(CC2)CC(O)=O)cc1)O], the pAct (CysLT1R) is given as 9.4.
For `O=C(Nc1cccc2c(=O)cc(-c3nn[nH]n3)oc12)c1ccc(OCCCCc2ccccc2)cc1` [CHEMBL21333, C(CCOc1ccc(cc1)C(Nc1cccc2C(C=C(c3nn[nH]n3)Oc12)=O)=O)Cc1ccccc1], the pAct (CysLT1R) is listed as 9.1.
In the case of `O=C(O)CCCN1CC(C(=O)O)Oc2c(C=Cc3ccc(OCCCCc4ccccc4)cc3)cccc21` (stereo not drawn) [CHEMBL3401687, C(CCOc1ccc(C=Cc2cccc3c2OC(CN3CCCC(O)=O)C(O)=O)cc1)Cc1ccccc1], the pAct (CysLT2R) is given as 8.2.
For `Cc1c(Cl)cccc1CCCCOc1ccc(C#Cc2cccc3c(CCCC(=O)O)c(C)n(CC(=O)O)c23)cc1` [CHEMBL3597618, Cc1c(CCCCOc2ccc(C#Cc3cccc4c(CCCC(O)=O)c(C)n(CC(O)=O)c34)cc2)cccc1[Cl]], the pAct (CysLT1R) is listed as 9.7.
